Assay results published in patent US20090042240A1, “RAPID DETECTION OF ANTIMICROBIAL DRUG RESIDUES” (priority 2006, published 2009).

What was measured:
Escherichia coli strains = conditions: Choi et al. 1999, animal tissues; cited from earlier work
[1] = test system: Escherichia coli ATCC 11303; conditions: milk; Escherichia coli ATCC 11303 frozen in 10% glycerol; cited from earlier work
Escherichia coli = conditions: additional study 1997; microorganism frozen in skimmed milk, cells washed with saline; cited from earlier work
[2] = test system: Escherichia coli strain ATCC 11303; assay: Liquid based microbial screening test for quinolones (Example 2); type: cell-based; conditions: spiked demineralized water, 100 μl sample, 37° C., 4 hours and 45 minutes, colour change purple to yellow
Experimental: In this experiment a liquid based microbial screenings test for the detection of quinolones is described. The quinolone medium used in this experiment is prepared by dissolving the following compounds in 1 liter of demineralized water: • 8.5 gram of Plate Count Broth (PCB) (Difco, cat. no: 275120); • 20 gram of NaCl (Merck, cat. no: 106404); • 0.042 gram of Bromocresol purple (Merck, cat. no: 103025). Escherichia coli strain ATCC 11303 was grown using well-known methods. The test medium was prepared by adding Escherichia coli cells to the quinolone medium to a final concentration of approximately 10^5 cells/ml. The test was prepared by addition of 250 μl of medium containing the test organism in each test ampoule. Spiked samples were prepared by adding different concentrations of the quinolones described in Table 1 to demineralized water. 100 μl of the spiked sample was added to the test ampoule, a negative control (water without quinolones) was included. The tests were incubated at 37° C. for 4 hours and 45 minutes. The tests were read at the time the test incubated with the negative control sample (water without quinolones) changed color from purple to yellow.

[3] = test system: Escherichia coli strain ATCC 11303; assay: Detection of quinolones in chicken muscle by solvent extraction, then liquid test (Example 7); type: cell-based; conditions: acetonitrile/acetone extraction
Experimental: Escherichia coli strain ATCC 11303 was grown using well-known methods. The test medium was prepared by adding Escherichia coli cells to the quinolone medium to a final concentration of approximately 10^5 cells/ml. The test was prepared by addition of 250 μl of medium containing the test organism in each test ampoule. Spiked samples were prepared by adding different concentrations of the quinolones described in Table 1 to demineralized water. 100 μl of the spiked sample was added to the test ampoule, a negative control (water without quinolones) was included. The tests were incubated at 37° C. for 4 hours and 45 minutes. The tests were read at the time the test incubated with the negative control sample (water without quinolones) changed color from purple to yellow. In this experiment a mixture of acetonitrile/acetone is used to extract antimicrobial compounds out of the sample, further the experiment is executed as described in Example 2. The sample is obtained as follows: • 1. Weigh out 4 g (±0.03) of sample into a 50 ml plastic disposable centrifuge tube; • 2. Add 10 ml acetonitrile/acetone 70:30 (v/v); • 3. […] Homogenize for 30-40 seconds using an Ultra Turrax; • 5. Place in an ultrasonic bath for 5-10 minutes, then vortex mix for 30-40 seconds; • 6. Centrifuge for 10-12 minutes at 4200 G at 4° C.; • 7. […]

[4] = cited from earlier work; for Lowest official MRL: official Maximum Residue Limit, unit assumed; for MRL: MRL stated by the European Community
[5] = agar diffusion, Tsai and Kondo 2001; cited from earlier work

CCN1CCN(c2cc3c(cc2F)c(=O)c(C(=O)O)cn3C2CC2)CC1 [Enrofloxacin]
detection limit (Escherichia coli strains): 50 ppb | sensitivity [1]: 2 ppb | sensitivity (Escherichia coli): 6 ppb

CC1CCc2cc(F)cc3c(=O)c(C(=O)O)cn1c23 (centres unmarked) [Flumequin]
Detection level [2]: 100 | concentration detected [3]: 10 µg/kg | Lowest official MRL [4]: 400 µg/kg

CCn1cc(C(=O)O)c(=O)c2cc3c(cc21)OCO3 [Oxolinic acid]
concentration detected [3]: 10 µg/kg | sensitivity [5]: 200 ppb | Lowest official MRL [4]: 100 µg/kg

O=C(O)c1cn(-c2ccc(F)cc2)c2cc(N3CCNCC3)c(F)cc2c1=O [Sarafloxacin]
detection limit (Escherichia coli strains): 250 ppb | sensitivity (Escherichia coli): 15 ppb | MRL [4]: 100 ppb | Lowest official MRL [4]: 10 µg/kg

CN1CCN(c2cc3c(cc2F)c(=O)c(C(=O)O)cn3-c2ccc(F)cc2)CC1 [difloxacin]
detection limit (Escherichia coli strains): 250 ppb | MRL [4]: 10 ppb

CN1C[C@@H]2C[C@H]1CN2c1cc2c(cc1F)c(=O)c(C(=O)O)cn2C1CC1 [Danofloxacin]
sensitivity (Escherichia coli): 8 ppb | Lowest official MRL [4]: 30 µg/kg
